Reference: article PMC10661096, “Cryopreservation of assay-ready hepatocyte monolayers by chemically-induced ice nucleation: preservation of hepatic function and hepatotoxicity screening capabilities” (Biomaterials Science, 2023)
Where “and” joins values, the source holds several entries; their conditions need not be identical. Equal values may be shown once. Each block holds one molecule with its values, some of them ahead of it.

Experiments:
[1] = system: HepG2 cells; test: Post-thaw percentage cell recovery of monolayers in 96 well plates (Trypan Blue counts); format: cell-based, Human; conditions: −80 °C, 24 h post-thaw, additives supplemented with 10% DMSO
Method: (§1) HepG2 cells (density dependent on assay) and mouse hepatocytes (30k cell per well) were plated on rat tail type I collagen (100 μg mL^−1) coated 96 well plates and incubated for 24 hours. The cryoprotectant solution was prepared in advance. Hornbeam pollen (0.8 g) was suspended in sterile water (10 mL) for 24 h at 4 °C. The solution was sterile filtered and mixed 1 : 1 with either Eagle's minimum essential base medium (HepG2) or Williams E base medium (Mouse hepatocytes) supplemented with 20% FBS and 20% DMSO (final concentration 10%) to produce the cryopreservation formulation. The cell culture medium of the cells was replaced with 100 μL of the prechilled cryopreservation formulation (4 °C) and the plates were placed on a Corning XT CoolSink 96F and in a −80 °C freezer overnight. HepG2 cells and hepatocytes were also cryopreserved with 10% DMSO alone in cell culture medium for comparison. To thaw the cells, 150 μL of warm complete/thawing cell culture medium (37 °C) was added and the plates were placed in the incubator for 12 min. […]
(§2) HepG2 cells were cryopreserved between 1.6–30k cell per well and hepatocytes at a density of 30k cell per well. […] Freeze/Thaw and non-frozen HepG2 cells were counted daily until 80–90% confluency was reached to determine proliferation rates. […]

[2] = system: primary mouse hepatocytes; test: as above; format: cell-based; conditions: primary mouse hepatocyte monolayers, 24 h post-thaw
Method: as §1, §2

[3] = system: A549 cells; test: Post-thaw percentage cell recovery of monolayers in 96 well plates; format: cell-based, Human; conditions: 24 h post-thaw
Method: °C and 150 µL of warm complete cell medium (37 °C) was added. The cells were placed in the incubator for 12 mins, to allow thawing, and the solutions were replaced with 200 µL of warm complete cell medium (37 °C). The cells were placed in the incubator for a further 24 h.
Percentage cell recovery was determined by dissociating cells with trypsin (0.25%) and EDTA (1 mM), staining the cells with trypan blue (to count membrane intact cells) and comparing cell counts immediately before and 24 h after freeze/thaw. A549 cells were cryopreserved using the same approach as confluent monolayers (20k cells/well) and varying cell densities (outlined throughout) as another comparative cell line, using Ham's F-12K (Kaighn's) Medium supplemented with 10% FBS and 1% PSA as the complete growth medium and Ham's F-12K (Kaighn's) Medium alone as the base medium. Cell recovery values were also obtained for plates containing A549 and HepG2 cells stored for over 1 month in a -80 °C freezer.
1.5 Assessing Cellular Health
HepG2 cells (7.5k cell/well) were seeded in collagen (12.7 µg/cm2) coated 96 well plates and A549 cells (7.5k cell/well) were seeded in collagen uncoated 96 well plates. The plates were freeze/thawed as described in section 1.4. […]

[4] = system: HepG2 cells; test: Drug dose–response, resazurin reduction cell viability; format: cell-based; conditions: Homo sapiens, HepG2, 24 h, 24 h treatment
Method: Statistical analysis and data visualization were performed using GraphPad Prism 8 (La Jolla, California, USA). The Shapiro-Wilk test and Levene test were utilized to assess the normality of the data and equality of variances between groups. If the data met the assumptions of normality and equal variance, it was reported as mean ± SEM. Statistical significance between the means of 2 groups were assessed using an unpaired (independent) T-test and for 2+ groups a one-way analysis of variance (ANOVA), followed by Tukey's post hoc analysis, was used. […] Statistical significance between means was determined using Welch's t-test. The significance levels were represented as follows: not significant (ns) for p ≥ 0.05, * for p ≤ 0.05, ** for p ≤ 0.01, and **** for p ≤ 0.0001. Dose–response curves were generated using nonlinear regression with a variable slope (four parameters) fitted by the least squares regression method, without any weighting. GraphPad determined the EC50 values based on the fitting process. […] Fluorescence measurements were recorded with excitation and emission at 530/25 nm and 590/30 using a BioTek Synergy HT microplate reader. Wells with resazurin solution alone were also measured for background subtraction and cells untreated with pharmaceutically active compounds were measured as a maximum resazurin reduction value. […] Cell culture medium was replaced by cell culture media supplemented with acetaminophen (0–92.6 mM), diclofenac (0–3.4 mM), doxorubicin (0–9.2 mM), metformin (0–310 µM), phenformin (0–97.4 µM) and valproic acid (0–50 mM) and […] The cell culture medium was replaced with 100 µL of resazurin solution, prepared by dissolving 1 resazurin tablet (Scientific Laboratory Supplies, Nottingham, UK) in 50 mL of phenol-free DMEM/F-12 medium supplemented with 10% FBS and sterile filtered. The cells were incubated for 2 h in […] Fluorescence measurements were recorded with excitation and emission at 530/25 nm and 590/30 using a BioTek Synergy HT microplate reader. Wells with resazurin solution alone were also measured for background subtraction and cells untreated with pharmaceutically active compounds were measured as a maximum resazurin reduction value. Percentage cell viability was reported using the fluorescence readings using the following equation: Sample Fluorescence − Background Fluorescence x 100 Maximum (Untreated) Fluorescence − Background Fluorescence 1.7 Primary Hepatocyte Cryopreservation Mice were bred at the University of Warwick after local AWERB and Home Office approvals (PP3644080). Hepatocytes were isolated from adult (8- to 12-weeks old) male and female C57BL/6NCrl mice livers, via a two-step perfusion process. After cervical dislocation, the peritoneal cavity was open and a 27G needle was inserted into the vena cava. Perfusion was carried out through the vena cava at a flow rate of 6 mL.min-1 for 10 mins with buffers warmed S11

[5] = system: primary mouse hepatocytes; test: as above; format: cell-based; conditions: Hepatocyte, 24 h, 24 h treatment
Method: Non-frozen and freeze/thaw hepatocytes were treated with diclofenac (0–3.4 μM) and metformin (0–77.4 mM) and placed in a humidified environment at 37 °C and 5% CO2 for 24 h. The cell culture medium was replaced with 100 μL of resazurin solution and the cells were incubated for 2 h in a humidified environment at 37 °C and 5% CO2. Fluorescence measurements were recorded with excitation and emission at 530/25 nm and 590/30 using a BioTek Synergy HT microplate reader. […] Percentage cell viability was reported using the fluorescence readings using the following equation: [drawing 2]
The cell culture medium of freeze/thaw hepatocytes, produced in section 1.7, was replaced by
maintenance medium supplemented with diclofenac (0–3.4 mM) and metformin (0–77 µM)
and placed in a humidified environment at 37 °C and 5% CO2 for 24 h. The cell culture medium
(Scientific Laboratory Supplies, Nottingham, UK) in 50 mL of maintenance medium
supplemented with 10% FBS and sterile filtered. The cells were incubated for 24 h in a
humidified environment at 37 °C and 5% CO2. Fluorescence measurements were recorded with
𝑆𝑎𝑚𝑝𝑙𝑒 𝐹𝑙𝑢𝑜𝑟𝑒𝑠𝑐𝑒𝑛𝑐𝑒 − 𝐵𝑎𝑐𝑘𝑔𝑟𝑜𝑢𝑛𝑑 𝐹𝑙𝑢𝑜𝑟𝑒𝑠𝑐𝑒𝑛𝑐𝑒 x 100
𝑀𝑎𝑥𝑖𝑚𝑢𝑚 (𝑈𝑛𝑡𝑟𝑒𝑎𝑡𝑒𝑑) 𝐹𝑙𝑢𝑜𝑟𝑒𝑠𝑐𝑒𝑛𝑐𝑒 − 𝐵𝑎𝑐𝑘𝑔𝑟𝑜𝑢𝑛𝑑 𝐹𝑙𝑢𝑜𝑟𝑒𝑠𝑐𝑒𝑛𝑐𝑒

[6] = system: HepG2 cells; conditions: cited from earlier work; for Post-thaw cell recovery after preconditioning: HepG2 cells and other cell lines, increased from approximately 10–20% ref 22,23
[7] = Freeze/Thaw HepG2 cells (24 h post-thaw)
[8] = Freeze/Thaw adherent primary mouse hepatocytes
[9] = Non-frozen primary mouse hepatocytes

Structure (SMILES): C[S+](C)[O-] [10% DMSO, dimethyl sulfoxide]
Post-thaw percentage cell recovery [1]: 10% and 12.6%
Post-thaw percentage cell recovery [2]: 50%
Post-thaw percentage cell recovery [3]: 29%

EC50 [4, 7]: 11700 µM
EC50 ([4]; Non-frozen HepG2 cells): 14200 µM
Structure (SMILES): CC(=O)Nc1ccc(O)cc1 [Acetaminophen, acetaminophen]

Structure (SMILES): O=C(O)Cc1ccccc1Nc1c(Cl)cccc1Cl [Diclofenac, diclofenac]
EC50 [5, 8]: 880 µM
EC50 [5, 9]: 780 µM

EC50 [4, 7]: 16.3 µM
EC50 ([4]; Non-frozen HepG2 cells): 2 µM
Structure (SMILES): COc1cccc2c1C(=O)c1c(O)c3c(c(O)c1C2=O)C[C@@](O)(C(=O)CO)C[C@@H]3O[C@H]1C[C@H](N)[C@H](O)[C@H](C)O1 [Doxorubicin, doxorubicin]

EC50 [4, 7]: 4280 µM
EC50 ([4]; Non-frozen HepG2 cells): 3780 µM
Structure (SMILES): CN(C)C(=N)N=C(N)N [Metformin, metformin]
EC50 [5, 8]: 600 µM
EC50 [5, 9]: 780 µM

EC50 [4, 7]: 290 µM
EC50 ([4]; Non-frozen HepG2 cells): 330 µM
Structure (SMILES): [H]/N=C(/N)N/C(=N/[H])NCCc1ccccc1 [Phenformin, phenformin]

EC50 [4, 7]: 1790 µM
EC50 ([4]; Non-frozen HepG2 cells): 2880 µM
Structure (SMILES): CCCC(CCC)C(=O)O [VPA, valproic acid]

Structure (SMILES): CC(C)CCC[C@@H](C)[C@H]1CC[C@H]2[C@@H]3CC=C4C[C@@H](O)CC[C@]4(C)[C@H]3CC[C@]12C.O [cholesterol monohydrate]
Post-thaw percentage cell recovery [1]: ~60%

Structure (SMILES): O=C(O)[C@@H]1CCCN1 [proline]
Post-thaw cell recovery after preconditioning [6]: 50%

Structure (SMILES): OC[C@H]1O[C@H](O[C@H]2O[C@H](CO)[C@@H](O)[C@H](O)[C@H]2O)[C@H](O)[C@@H](O)[C@@H]1O [trehalose]
Post-thaw cell recovery after preconditioning [6]: 50%
Cell recovery after preconditioning with trehalose ([6]; HepG2 monolayers ref 23): 42%
